The text below walks through data of patent US20190352276A1, “INHIBITORS OF BRUTON'S TYROSINE KINASE” (Joint Stock Company "Biocad", priority 2016, published 2019).

Each structure is given as a SMILES string. Where only a bound is given, the exact number is not on record here.

The conditions of data set [1]: human, microsomes.
Experimental: 2) Metabolic Stability in Human Liver Microsomes
The rate of enzymatic decomposition of a compound was detected by incubating the reaction mixture in a dry block heater at 37° C.; the reaction mixture contained 0.5 mg/mL of pooled human liver microsomes (XenoTech, USA, cat# H6010), 10 mM of a drug candidate, 2 mM β-nicotinamide adenine dinucleotide (Carbosynth, UK, cat#NN10871) and 4 mM of magnesium chloride in 0.1M sodium phosphate buffer pH=7.4. The reaction was terminated by adding 100 μL of acetonitrile for each 100 μL of the reaction mixture. After the reaction was terminated, the samples were centrifuged for 10 min at 10000 rpm. The supernatant was chromatographed using Agilent 1200 chromatograph (Agilent, USA). We used gradient elution (1 mL/min flow rate). We plotted a calibration curve of the logarithm of the peak area vs. time. The gradient of the line corresponded to the elimination rate constant k. Based on the constant, determined using the curve, we calculated the drug's half-life (T1/2) and metabolism rate (CLint).
For data set [2], the system named is Mino (mantle cell lymphoma). The experiment in a line: Antiproliferative activity, Mino cells (Alamar Blue). In kind it is cell-based. The note with it: Homo sapiens, Table 10, 72 h, average of several tests. Summed up:
(§1)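 Cells (~3*10^4 per well) in RPMI-1640 with 10% FBS and gentamicin were exposed to diluted compounds (DMSO <1%) for 72 h at 37 °C, 5% CO2. Alamar Blue was then added for 14-16 h, and fluorescence was read at Ex 540/Em 590 nm. IC50 came from a four-parameter logistic fit.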
For orientation: Resazurin is reduced to fluorescent resorufin, in cell work by metabolically active cells.

For the next data set, the system named is Caco-2 cells. Nature of the data set: Permeability through the monolayer of Caco-2 cells. The data set is classed as in vitro ADME. Summed up:
(§2)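 Caco-2 monolayers grown 21 days on 0.4 μm transwell filters, integrity checked with Lucifer Yellow. Compounds at 10 μM were added apically at pH 6.5 (A→B) or basolaterally at pH 7.4 with 1% BSA (B→A) and sampled after 2 h. Concentrations by HPLC; Papp calculated, efflux ratio as Papp B-A/Papp A-B.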

Data set [3] can be described thus: Permeability through the monolayer of Caco-2 cells. In kind it is in vitro ADME. The note with it: human, 2 h at 37° C. In a few lines:
as §2
(In general: Passage across Caco-2 layers is used to estimate intestinal permeability.)

For data set [4], the target named is T1, recombinant Btk kinase enzyme (Homo sapiens, UniProt Q06187).
T1 construct: purchased SignalChem B10-10H
T1 sequence (Q06187 whole entry): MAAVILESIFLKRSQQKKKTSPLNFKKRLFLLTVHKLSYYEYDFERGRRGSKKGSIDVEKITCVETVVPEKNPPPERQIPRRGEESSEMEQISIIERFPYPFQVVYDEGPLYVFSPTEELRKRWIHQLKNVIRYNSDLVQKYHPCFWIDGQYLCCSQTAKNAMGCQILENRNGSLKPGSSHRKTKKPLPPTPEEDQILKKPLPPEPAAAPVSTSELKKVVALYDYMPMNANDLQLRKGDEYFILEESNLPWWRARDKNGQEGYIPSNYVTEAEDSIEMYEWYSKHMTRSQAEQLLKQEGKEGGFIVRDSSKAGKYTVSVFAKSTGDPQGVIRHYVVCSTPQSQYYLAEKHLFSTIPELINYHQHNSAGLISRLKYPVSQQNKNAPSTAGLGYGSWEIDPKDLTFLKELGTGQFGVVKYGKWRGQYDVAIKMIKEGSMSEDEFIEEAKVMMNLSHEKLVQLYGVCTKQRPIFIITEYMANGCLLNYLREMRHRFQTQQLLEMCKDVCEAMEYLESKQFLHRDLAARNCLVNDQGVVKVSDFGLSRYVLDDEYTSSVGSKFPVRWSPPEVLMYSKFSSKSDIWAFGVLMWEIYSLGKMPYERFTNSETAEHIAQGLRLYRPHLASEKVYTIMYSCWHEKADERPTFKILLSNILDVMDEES
Nature of the data set: In vitro inhibition of Btk kinase activity (ADP-Glo). In kind it is biochemical. The note with it: Table 8; ADP-Glo; read-out: IC50 kinase BTK. In a few lines: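 Recombinant human Btk phosphorylating Poly(Glu,Tyr 4:1) substrate (0.5 mg/mL) with 50 μM ATP, 180 min at 37° C., in presence of inhibitor. ADP formed detected by ADP-Glo luminescence; IC50 from four-parameter logistic fit.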
Background: ADP-Glo first removes unused ATP, then detects ADP through luciferase.

Data set [5] has as its system DOHH2 (follicular lymphoma). The experiment in a line: Antiproliferative activity, DOHH2 cells (Alamar Blue). The conditions noted are these: Homo sapiens, DOHH-2, Table 10, 72 h, average of several tests. In kind it is cell-based. In a few lines: as §1
For data set [6], the system named is Z-138 (mantle cell lymphoma). The experiment in a line: Antiproliferative activity, Z-138 cells (Alamar Blue). The data set is classed as cell-based. The note with it: Homo sapiens, Table 10, 72 h, average of several tests. Summed up:
as §1

Data set [7] concerns HepG2 cells (hepatocellular carcinoma). Nature of the data set: General cytotoxicity on HepG2 cells (CC50; therapeutic index CC50 HepG2/IC50 Mino). The note with it: Table 10; therapeutic index. The data set is classed as cell-based. In a few lines:
(§3)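 Cells seeded at 2*10^4 per well in DMEM, compounds added after 24 h at 200 μM to 4 μM final and incubated 72 h. Viability read with Alamar Blue to derive CC50; therapeutic index is CC50 (HepG2) divided by IC50 (Mino).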

Assay in data set [8]: as above
The note with it: human, HepG2 cells (hepatocellular carcinoma); Table 10; 72 hours, Alamar Blue; average of several tests. In kind it is cell-based. Summed up: as §3

Regarding `C=CC(=O)N1CCC[C@@H](n2nc(-c3ccc(Oc4ccncc4)cc3)c3c(N)nccc32)C1` [BCD-BTK -241, (R)-1-(1-acryloylpiperidin-3-yl)-4-amine-3-(4-(pyridin-4-yloxy)phenyl)-1H-pyrazolo[4,3-c]pyridine], the “Clint (microsome metabolic stability)” value in data set [1] turned out to be 27.4 µL/min/mg.
As a reminder, the IC50 is the concentration that gives 50% inhibition. For orientation: Papp A→B means the apparent permeability from the apical to the basolateral side of a cell layer. High values mean ready permeation, low ones poor permeation. In general, Papp B→A refers to the apparent permeability from the basolateral to the apical side of a cell layer. A word on the CC50: it is the concentration at which the toxic effect on the cells reaches its halfway point. A high value points to lower toxicity to the cells. On to `C=CC(=O)N1CCC[C@@H](n2nc(-c3ccc(C(=O)Nc4cc(C(F)(F)CC)ccn4)cc3)c3cncc(F)c32)C1` [BCD-BTK-214, (R)-4-(1-(1-acryloylpiperidin-3-yl)-7-fluoro-1H-pyrazolo[4,3-c]pyridin-3-yl)-N-(4-(1,1-difluoropropyl)pyridin-2-yl)benzamide], for which the IC50 in [2] is 1280 nM; in data set [4] it was 34.3 nM; in data set [5] it was above 100 µM; in [6], 89.4 µM. In addition, the “efflux (Papp B-A/Papp A-B)” value in the data set with Caco-2 cells was 0.05. The compound also had a Papp A→B at 2 h, 10 μM in data set [3] (A→B) of 17.8 ×10⁻⁶ cm/s. The compound further yielded a Papp B→A at 2 h, 10 μM in data set [3] (B→A) of 0.87 ×10⁻⁶ cm/s. In addition, the “CC50 (HepG2)/IC50 (Mino)” value in data set [7] is above 77.94. The compound also showed a half-maximal cytotoxic concentration (CC50) at 72 h in data set [8] above 100 µM.
